Results on eight compounds are retold here after US11771699B2, “Combined treatment with a TLR7 agonist and an HBV capsid assembly inhibitor” (Hoffmann-La Roche Inc., priority 2015, dated 2023).

One test relates to HBV. The conditions noted are these: HBV infected transgenic mouse or humanized mouse models; cited from earlier work.
For a further test, the system named is HBV (AAV-HBV). The test is classed as in vivo, C57BL/6 mice. The settings on record: for reduction in HBV DNA: Compound 2 12 mg/kg QD; for effect on HBV DNA: Example 7, FIG. 4-6; for effect on HBV DNA / effect on HBsAg: single treatment, 6 weeks PO, Compound 5 12 mg/kg QD; for effect on HBsAg: Example 7, FIG. 5-6. The text has this:
4-week old male C57BL/6 mice, specific pathogen free, were purchased from Shanghai Laboratory Animal Center of Chinese Academy of Sciences (SLAC) and housed in an animal care facility in individually ventilated cages under controlled temperature and light conditions following the Institutional Animal Care guidelines. AAV/HBV virus was purchased from Beijing FivePlus Molecular Medicine Institute (Beijing, China). This recombinant virus carries 1.3 copies of the HBV genome, which was packaged in AAV serotype 8 (AAV8) capsids. C57BL/6 mice were injected with […], of recombinant virus, diluted in saline buffer, through tail vein injection. The mice were bled at days 7 and 14 post injection to monitor HBV surface antigen (HBsAg), HBV e antigen (HBeAg), HBs antibody (HBsAb) and HBV genomic DNA in serum, and then were randomly grouped according to these HBV biomarkers.
Measurement of HBV Biomarkers
Serum HBsAg and HBeAg was measured using CLIA kits (Autobio Diagnostics Co., Ltd, Zhengzhou, China) according to the manufacturer's instructions. The lower limit of detection for HBsAg and HBeAg was 0.1 ng/mL and 0.25 NCU/mL (national clinical unit/mL) respectively. Serum dilution of 100-fold (for HBsAg) or 500-fold (for HBeAg) was used to obtain values within the linear range of the standard curve. Serum HBV DNA was extracted using a MagNA Pure 96 DNA and Viral NA Small Volume Kit (Roche) following the manufacturer's instructions. The DNA samples were analyzed by real-time quantitative PCR (qPCR) using a HBV-specific primer and probe set for specific amplification and detection of a 128 bp HBV genome region from the nucleotide 2969 to 3096. The sequences of the primers and probe are shown as follows: […]
Anti-HBs in the serum was measured on day 24 after the treatment ended using Anti-HBs CLIA kits (Autobio Diagnostics Co., Ltd, Zhengzhou, China) following the manufacturer's instructions. The serum samples were 3-fold diluted and 50 μL of the diluted samples were used for the assay.
10 mg/mL of Compound 1 and 1.2 mg/mL of Compound 2 was formulated as an inclusion complex with 2% Klucel LF, 0.1% Polysorbate 80, and 0.1% Parabens in water. All the mice were orally dosed for a total of 6 weeks followed by a 2-week off-treatment period. In one single-treatment control study, the five mice of the group Compound 1 were treated with Compound 1 at 100 mg/kg every other day (QOD). The vehicle group was treated with an equivalent volume of oral-QD vehicle placebo (2% Klucel LF, 0.1% Polysorbate 80, and 0.1% Parabens in water). In the combination therapy study, the five mice of the group Compound 2 were administered at 12 mg/kg orally once daily (QD). The group Combo received 100 mg/kg of Compound 1 QOD plus 12 mg/kg Compound 2 QD. The vehicle group was treated with an equivalent volume of oral-QD vehicle placebo (2% Klucel LF, 0.1% Polysorbate 80, and 0.1% Parabens in water).
In another independent study, more combinations of a TLR7 agonist plus a Capsid inhibitor and corresponding single compound treatments were tested (summarized in Table 2) using the same AAV-HBV mouse model and method of measurement of HBV biomarkers described in Example 5.
In this study, eight mice were recruited in each group, and animals received the first dose on day 28 post AAV-HBV infection. The tested combinations included Compound 1 plus Compound 4, Compound 3 plus Compound 4, and Compound 1 plus Compound 5.

In another test the target is T1, human TLR7 (Homo sapiens, UniProt Q9NYK1).
T1 sequence (Q9NYK1 27-1049): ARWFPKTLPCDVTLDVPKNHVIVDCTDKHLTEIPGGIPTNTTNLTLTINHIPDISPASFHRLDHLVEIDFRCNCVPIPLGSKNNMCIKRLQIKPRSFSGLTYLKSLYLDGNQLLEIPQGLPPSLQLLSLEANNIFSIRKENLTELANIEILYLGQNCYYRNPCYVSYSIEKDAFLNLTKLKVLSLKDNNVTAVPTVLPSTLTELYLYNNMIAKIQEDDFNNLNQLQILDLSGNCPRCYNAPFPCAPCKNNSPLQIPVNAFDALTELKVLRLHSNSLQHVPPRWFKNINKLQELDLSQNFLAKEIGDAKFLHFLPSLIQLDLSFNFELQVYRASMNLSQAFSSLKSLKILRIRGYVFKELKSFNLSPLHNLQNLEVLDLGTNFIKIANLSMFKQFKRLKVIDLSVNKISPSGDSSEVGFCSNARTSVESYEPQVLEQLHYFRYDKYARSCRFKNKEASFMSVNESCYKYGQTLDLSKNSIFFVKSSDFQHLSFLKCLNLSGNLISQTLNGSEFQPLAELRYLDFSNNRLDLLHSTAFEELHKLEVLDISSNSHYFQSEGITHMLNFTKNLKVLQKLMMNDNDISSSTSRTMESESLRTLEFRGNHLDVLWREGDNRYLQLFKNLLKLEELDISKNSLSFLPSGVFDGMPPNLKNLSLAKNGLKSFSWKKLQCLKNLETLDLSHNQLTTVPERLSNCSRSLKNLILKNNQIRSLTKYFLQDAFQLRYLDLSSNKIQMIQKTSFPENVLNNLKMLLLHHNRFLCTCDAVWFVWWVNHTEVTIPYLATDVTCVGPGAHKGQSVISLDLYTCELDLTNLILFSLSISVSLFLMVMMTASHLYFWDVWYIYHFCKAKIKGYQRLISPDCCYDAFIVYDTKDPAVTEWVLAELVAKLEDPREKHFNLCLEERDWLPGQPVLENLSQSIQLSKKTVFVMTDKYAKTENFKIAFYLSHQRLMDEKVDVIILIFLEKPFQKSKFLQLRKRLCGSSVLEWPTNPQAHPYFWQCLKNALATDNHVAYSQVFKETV
Briefly: HEK293-Blue-hTLR-7 cells assay (NF-κB/AP-1 SEAP reporter). The test is classed as cell-based. The conditions noted are these: 20 hours incubation, read-out: TLR7 agonism activity in HEK293-hTLR-7 assay. The text has this:
HEK293-Blue-hTLR-7 Cells Assay:
A stable HEK293-Blue-hTLR-7 cell line was purchased from InvivoGen (Cat.#: hkb-htlr7, San Diego, Calif., USA). These cells were designed for studying the stimulation of human TLR7 by monitoring the activation of NF-κB. A SEAP (secreted embryonic alkaline phosphatase) reporter gene was placed under the control of the IFN-β[…] minimal promoter fused to five NF-κB and AP-1-binding sites. The SEAP was induced by activating NF-κB and AP-1 via stimulating HEK-Blue hTLR7 cells with TLR7 ligands. Therefore the reporter expression was regulated by the NF-κB promoter upon stimulation of human TLR7 for 20 hours. The cell culture supernatant SEAP reporter activity was determined using QUANTI-Blue™ kit (Cat.#: rep-qb1, Invivogen, San Diego, Ca, USA) at a wavelength of 640 nm, a detection medium that turns purple or blue in the presence of alkaline phosphatase.
HEK293-Blue-hTLR7 cells were incubated at a density of 250,000˜450,000 cells/mL in a volume of 180 μL in a 96-well plate in Dulbecco's Modified Eagle's medium (DMEM) containing 4.5 g/L glucose, 50 U/mL penicillin, […], […], 2 mM L-glutamine, 10% (v/v) heat-inactivated fetal bovine serum for 24 h. […]

[1] abbreviates: Example 6, FIG. 1, serum, after a 6-week treatment, oral, Compound 1 100 mg/kg QOD.
The mark [2] stands for this setting: Example 6, FIG. 1, serum, after a 6-week treatment, Compound 2 12 mg/kg QD oral.
[3] abbreviates: Compound 4 20 mg/kg QD, Compound 3 30 mg/kg QOD.
[4] abbreviates: Example 8, FIG. 8, serum, end of the 6-week treatment, Compound 8 300 mg/kg QOD PO.

Like-named read-outs stand apart in the source and are kept apart here.

Regarding `COC(=O)C1=C(C)NC(c2ncc(F)cc2F)=N[C@H]1c1ccc(F)cc1Cl` [Bay 41-4109], in the test with HBV, the “in vivo efficacy (HBV DNA)” value was “in vivo efficacy with HBV DNA reduction”.
Consider `CC[C@H](OC(C)=O)[C@@H]1C[C@@H](O)[C@H](n2c(=O)sc3cnc(N)nc32)O1` [Compound 1, [(1S)-1-[(2S,4R,5R)-5-(5-amino-2-oxo-thiazolo[4,5-d]pyrimidin-3-yl)-4-hydroxy-tetrahydrofuran-2-yl]propyl] acetate], for which, in the test with HBV (AAV-HBV) (setting [1]), the “reduction in HBsAg” value is on record as “more than 1 log” and the “reduction in HBV DNA” value was “more than 2 log”.
Take `CCOC(=O)C1=C(CN2CCN3C(=O)N(CC(C)(C)C(=O)O)C[C@@H]3C2)NC(c2nccs2)=N[C@H]1c1cccc(F)c1Cl` [Compound 2, 3-[(8aS)-7-[[(4R)-4-(2-chloro-3-fluoro-phenyl)-5-ethoxycarbonyl-2-thiazol-2-yl-1,4-dihydropyrimidin-6-yl]methyl]-3-oxo-5,6,8,8a-tetrahydro-1H-imidazo[1,5-a]pyrazin-2-yl]-2,2-dimethyl-propanoic acid]: the “reduction in HBV DNA” value with HBV (AAV-HBV) (setting [1]) is given as “more than 3 log”. Moreover, in the test with HBV (AAV-HBV) (setting [2]), the “HBV DNA level” value is recorded as “below the LLQ” and the “HBsAg level (effect in words)” value is recorded as “moderately reduced”.
Consider `CC(=O)O[C@@H](C1CC1)[C@H]1O[C@@H](n2c(=O)sc3cnc(N)nc32)CS1` [Compound 3, [(S)-[(2S,5R)-5-(5-amino-2-oxo-thiazolo[4,5-d]pyrimidin-3-yl)-1,3-oxathiolan-2-yl]-cyclopropyl-methyl] acetate], for which the “effect on HBV DNA” value in the test with HBV (AAV-HBV) (setting [3]) is “reduced”. In the test with HBV (AAV-HBV) (Compound 3 30 mg/kg QOD), the “effect on HBsAg” value was “reduced”.
Consider `CCOC(=O)C1=C(CN2CCN3C(=O)N(CC(C)(C)C(=O)O)C[C@@H]3C2)NC(c2nccs2)=N[C@H]1c1cccc(F)c1C` [Compound 4, 3-[(8aS)-7-[[(4S)-5-ethoxycarbonyl-4-(3-fluoro-2-methyl-phenyl)-2-thiazol-2-yl-1,4-dihydropyrimidin-6-yl]methyl]-3-oxo-5,6,8,8a-tetrahydro-1H-imidazo[1,5-a]pyrazin-2-yl]-2,2-dimethyl-propanoic acid], for which the “effect on HBV DNA” value in the test on HBV (AAV-HBV) (setting [3]) was “inhibited”. Further, the HBsAg reduction with HBV (AAV-HBV) (Example 7, FIG. 4 and 5, serum, end of 6-week treatment, PO, Compound 1 100 mg/kg QOD, Compound 3 30 mg/kg QOD, Compound 4 20 mg/kg QD) stood at 2 log.
Take `COC(=O)C1=C(CN2[C@@H]3C[C@H](CC(=O)O)C[C@H]2C(F)(F)C3)NC(c2nccs2)=N[C@H]1c1cccc(F)c1Cl` [Compound 5, 2-[(1R,3S,5S)-8-[[(4R)-4-(2-chloro-3-fluoro-phenyl)-5-methoxycarbonyl-2-thiazol-2-yl-1,4-dihydropyrimidin-6-yl]methyl]-6,6-difluoro-8-azabicyclo[3.2.1]octan-3-yl]acetic acid]: the “effect on HBV DNA” value with HBV (AAV-HBV) (setting [3]) is on record as “reduced”. Also, in the test on HBV (AAV-HBV) (Compound 3 30 mg/kg QOD), the “effect on HBsAg” value is “reduced”.
Take `CC(=O)O[C@@H]1C[C@@H](CO)O[C@H]1n1c(=O)sc2cnc(N)nc21` [Compound 8, 5-amino-3-(2′-O-acetyl-3′-deoxy-β-D-ribofuranosyl)-3H-thiazolo[4,5-d]pyrimidin-2-one]: in the test with HBV (AAV-HBV) (setting [4]), the “HBV DNA reduction” value was “about 2 log” and the HBsAg reduction was roughly 1.5 log.
For the compound `CC[C@H](O)[C@@H]1C[C@@H](O)[C@H](n2c(=O)sc3c(=O)[nH]c(N)nc32)O1` [compound 11], the EC50 on human TLR7 is 72 µM.
